Source: patent publication US9169252B2 (BRISTOL-MYERS SQUIBB COMPANY, priority 2014, dated 2015)
Like-named read-outs stand apart in the source and are kept apart here.

Tests used:
[1] = system: TLR2 induced IL-6 in peripheral blood mononuclear cells (PBMCs); assay: PBMC TLR2 Induced IL-6 Assay; type: cell-based, human; details: IL-6 by ELISA; for EC50: read-out: Cell EC50; for IC50: read-out: Cell IC50
Outline: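 Lipoteichoic acid at 10 µg/ml served as TLR2 stimulus for 5 hours, following a 30-minute compound pretreatment at 37° C. Cells were Ficoll-isolated human PBMCs, 250000 cells/well, cultured in RPMI plus 10% heat-inactivated FCS.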

IRAK4 = IRAK4 (Homo sapiens (Human), UniProt Q9NWZ3); assay: IRAK4 Inhibition Assay; type: biochemical; details: ATP 500 μM, read-out: IRAK4 IC50
Outline: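 IRAK4 combined with fluorescent substrate and compounds, reacted 60 min at room temperature, stopped with 35 mM EDTA. Substrate and phosphorylated product separated electrophoretically on a Caliper LabChip 3000 mobility-shift reader.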

[2] = Homo sapiens, PBMC, PBMC TLR2 Induced IL-6 Assay, lipoteichoic acid stimulation
[3] = human PBMCs, lipoteichoic acid stimulated
[4] = Homo sapiens, PBMC, human PBMCs, lipoteichoic acid stimulated

Chain of IRAK4 (Q9NWZ3 whole entry, species assumed): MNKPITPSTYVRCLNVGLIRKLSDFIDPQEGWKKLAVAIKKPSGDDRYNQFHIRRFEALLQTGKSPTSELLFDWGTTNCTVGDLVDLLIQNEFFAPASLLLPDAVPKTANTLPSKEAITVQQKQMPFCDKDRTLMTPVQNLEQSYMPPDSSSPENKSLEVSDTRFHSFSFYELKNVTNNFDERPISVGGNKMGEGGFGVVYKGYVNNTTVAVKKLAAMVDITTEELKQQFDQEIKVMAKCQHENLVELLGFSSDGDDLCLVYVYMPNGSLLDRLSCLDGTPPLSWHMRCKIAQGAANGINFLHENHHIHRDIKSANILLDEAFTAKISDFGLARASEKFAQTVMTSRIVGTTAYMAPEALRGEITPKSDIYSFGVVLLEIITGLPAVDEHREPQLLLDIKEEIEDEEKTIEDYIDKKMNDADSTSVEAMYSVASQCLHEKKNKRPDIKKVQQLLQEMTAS

## CC(C)(O)[C@H](F)CNC(=O)c1cnc(-n2ccc3cncnc32)cc1NC1CC1 [Example 41, (R)-4-(cyclopropylamino)-N-(2-fluoro-3-hydroxy-3-methylbutyl)-6-(7H-pyrrolo[2,3-d]pyrimidin-7-yl)nicotinamide]
[1]; [2]
  EC50: 220 nM
  IC50: 220 nM
IRAK4; IRAK4 Inhibition Assay
  IC50: 1.9 nM

## CC(F)Cn1cc(Nc2cc(-n3cnc4cc(C#N)cnc43)ncc2C(=O)NC[C@@H](F)C(C)(C)O)cn1 (mixture of isomers) [Example 378]
[1]; [2]
  IC50: 655 nM
IRAK4; IRAK4 Inhibition Assay
  IC50: 2.6 nM

## CC(CCF)Nc1cc(-n2ccc3cc(C#N)cnc32)ncc1C(=O)NC[C@@H](F)C(C)(C)O (single isomer, unassigned) [Example 427]
[1]; [3]
  EC50: 89 nM
IRAK4; IRAK4 0.6 nM
  IC50: 2.8 nM

## CC(C)Nc1cc(-n2ccc3cc(CNC(=O)C4CC4)cnc32)ncc1C(=O)NC[C@@H](F)C(C)(C)O [Example 505]
[1]; [4]
  IC50: 559 nM
IRAK4; IRAK4 0.6 nM
  IC50: 13.5 nM

## CC(C)(O)[C@H](F)CNC(=O)c1cnc(-n2ncc3cc(C#N)cnc32)cc1NC1CC1 [Example 139, (R)-6-(5-cyano-1H-pyrazolo[3,4-b]pyridin-1-yl)-4-(cyclopropylamino)-N-(2-fluoro-3-hydroxy-3-methylbutyl)nicotinamide]
[1]; [2]
  EC50: 118 nM
IRAK4; IRAK4 Inhibition Assay
  IC50: 2.9 nM

## CC(C)(O)[C@H](F)CNC(=O)c1cnc(-n2ccc3cc(C#N)cnc32)cc1NCC1COC1 [Example 29, (R)-6-(5-cyano-1H-pyrrolo[2,3-b]pyridin-1-yl)-N-(2-fluoro-3-hydroxy-3-methylbutyl)-4-((oxetan-3-ylmethyl)amino) nicotinamide]
[1]; [2]
  EC50: 141 nM
IRAK4; IRAK4 Inhibition Assay
  IC50: 3.7 nM

## CC(C)Nc1cc(-n2ncc3cc(C#N)cnc32)ncc1C(=O)NC[C@@H](F)C(C)(C)OP(=O)(O)O [Example 191, (R)-4-(6-(5-Cyano-1H-pyrazolo[3,4-b]pyridin-1-yl)-4-(isopropylamino)nicotinamido)-3-fluoro-2-methylbutan-2-yl dihydrogen phosphate]
[1]; [2]
  EC50: 10000 nM
IRAK4; IRAK4 Inhibition Assay
  IC50: 14.7 nM

## CC(C)Nc1cc(-n2ccc3cc(CNC(=O)CC4CCOCC4)cnc32)ncc1C(=O)NC[C@@H](F)C(C)(C)O [Example 518]
[1]; [4]
  IC50: 94 nM
IRAK4; IRAK4 0.6 nM
  IC50: 14 nM

## CC(C)(O)[C@H](F)CNC(=O)c1cnc(-n2cnc3cc(C#N)cnc32)cc1NC1CCC1 [Example 338]
[1]; [2]
  IC50: 147 nM
IRAK4; IRAK4 Inhibition Assay
  IC50: 4.5 nM

## CNC(=O)[C@H]1CC[C@H](NC(=O)c2cnc(-n3ncc4cc(C#N)c(N)nc43)cc2N[C@H]2CCCC[C@@H]2F)CC1 [Example 630]
[1]; [4]
  IC50: 30 nM
IRAK4; IRAK4 0.6 nM
  IC50: 2.2 nM

## CC(C)(O)[C@H](F)CNC(=O)c1cnc(-n2ccc3cc(C#N)cnc32)cc1Nc1ccc(-n2cncn2)cc1 [Example 68]
[1]; [2]
  EC50: 30 nM
IRAK4; IRAK4 Inhibition Assay
  IC50: 2.1 nM

## CC(C)(O)[C@H](F)CNC(=O)c1cnc(-n2ccc3cc(C#N)cnc32)cc1Nc1ccc2nn[nH]c2c1 [Example 436]
[1]; [4]
  EC50: 165 nM
IRAK4; IRAK4 0.6 nM
  IC50: 1.8 nM

## CC1(Nc2cc(-n3ccc4cc(C#N)cnc43)ncc2C(=O)NC[C@@H](F)C(C)(C)O)CC1 [Example 17, (R)-6-(5-cyano-1H-pyrrolo[2,3-b]pyridin-1-yl)-N-(2-fluoro-3-hydroxy-3-methylbutyl)-4-((1-methylcyclopropyl)amino)nicotinamide]
[1]; [2]
  EC50: 42 nM
IRAK4; IRAK4 Inhibition Assay
  IC50: 1.2 nM

## COC(C)(C)CNc1cc(-n2ncc3cc(C#N)cnc32)ncc1C(=O)NC[C@@H](F)C(C)(C)O [Example 593]
[1]; [4]
  IC50: 408 nM
IRAK4; IRAK4 0.6 nM
  IC50: 19.6 nM

## CC(C)(O)[C@H](F)CNC(=O)c1cnc(-n2ccc3cc(Cl)cnc32)cc1NC1CCC1 [Example 31, (R)-6-(5-chloro-1H-pyrrolo[2,3-b]pyridin-1-yl)-4-(cyclobutylamino)-N-(2-fluoro-3-hydroxy-3-methylbutyl)nicotinamide]
[1]; [2]
  EC50: 367 nM
  IC50: 1080 nM
IRAK4; IRAK4 Inhibition Assay
  IC50: 3.4 nM

## CO[C@H]1CC[C@H](NC(=O)c2cnc(-n3ncc4cc(C#N)cnc43)cc2NC2COC2)CC1 [Example 552]
[1]; [4]
  IC50: 213 nM
IRAK4; IRAK4 0.6 nM
  IC50: 13.4 nM

## CC(F)(F)Cn1cc(Nc2cc(-n3ncc4cc(Cl)cnc43)ncc2C(=O)NC[C@@H](F)C(C)(C)O)cn1 [Example 369]
[1]; [2]
  IC50: 32 nM
IRAK4; IRAK4 Inhibition Assay
  IC50: 1.9 nM

## CC(C)(F)CCNc1cc(-n2ncc3cc(C#N)cnc32)ncc1C(=O)NC[C@@H](F)C(C)(C)O [Example 600]
[1]; [4]
  IC50: 477 nM
IRAK4; IRAK4 0.6 nM
  IC50: 5.3 nM

## CC(C)Nc1cc(-n2ncc3cc(C#N)cnc32)ncc1C(=O)Nc1ccc(N(C)C)nc1 [Example 228]
[1]; [2]
  EC50: 163 nM
IRAK4; IRAK4 Inhibition Assay
  IC50: 6.9 nM

## CC(C)(O)[C@H](F)CNC(=O)c1cnc(-n2ncc3cc(C#N)c(N)nc32)cc1NC12CC3CC(CC(O)(C3)C1)C2 [Example 632]
[1]; [4]
  IC50: 149 nM
IRAK4; IRAK4 0.6 nM
  IC50: 2.6 nM

## CC(C)(O)CNc1cc(-n2ccc3cncnc32)ncc1C(=O)NC[C@@H](F)C(C)(C)O [Example 42, (R)—N-(2-fluoro-3-hydroxy-3-methylbutyl)-4-((2-hydroxy-2-methylpropyl)amino)-6-(7H-pyrrolo[2,3-d]pyrimidin-7-yl)nicotinamide]
[1]; [2]
  EC50: 612 nM
  IC50: 940 nM
IRAK4; IRAK4 Inhibition Assay
  IC50: 13.6 nM

## CC(C)Nc1cc(-n2ncc3cc(C#N)cnc32)ncc1C(=O)Nc1ccc(N2CCNCC2)nc1 [Example 227]
[1]; [2]
  EC50: 55 nM
IRAK4; IRAK4 Inhibition Assay
  IC50: 5.3 nM

## C[C@H](CF)Nc1cc(-n2ccc3cc(C#N)cnc32)ncc1C(=O)NCCC(C)(C)O [Example 120, (R)-6-(5-cyano-1H-pyrrolo[2,3-b]pyridin-1-yl)-4-((1-fluoropropan-2-yl)amino)-N-(3-hydroxy-3-methylbutyl)nicotinamide]
[1]; [2]
  EC50: 105 nM
IRAK4; IRAK4 Inhibition Assay
  IC50: 5.1 nM

## CC(O)CCNc1cc(-n2ccc3cc(C#N)cnc32)ncc1C(=O)NC[C@@H](F)C(C)(C)O (single isomer, unassigned) [Example 462]
[1]; [3]
  EC50: 66 nM
  IC50: 398 nM
IRAK4; IRAK4 0.6 nM
  IC50: 2.9 nM

## CC(C)(O)[C@H](F)CNC(=O)c1cnc(-n2ncc3cc(C#N)c(N)nc32)cc1NC12CC(C1)C2 [Example 637]
[1]; [4]
  IC50: 165 nM
IRAK4; IRAK4 0.6 nM
  IC50: 1.5 nM

## CC(C)(O)[C@H](F)CNC(=O)c1cnc(-n2ncc3cc(C#N)cnc32)cc1NCC(F)(F)C(C)(C)O [Example 169, (R)-6-(5-Cyano-1H-pyrazolo[3,4-b]pyridin-1-yl)-4-((2,2-difluoro-3-hydroxy-3-methylbutyl)amino)-N-(2-fluoro-3-hydroxy-3-methylbutyl)nicotinamide]
[1]; [2]
  EC50: 204 nM
IRAK4; IRAK4 Inhibition Assay
  IC50: 3.3 nM

## CC(C)(O)[C@H](F)CNC(=O)c1cnc(-n2ncc3cc(C#N)cnc32)cc1N[C@H]1CC[C@H](C(C)(C)O)CC1 [Example 606, 6-(5-Cyano-1H-pyrazolo[3,4-b]pyridin-1-yl)-N—((R)-2-fluoro-3-hydroxy-3-methylbutyl)-4-(((1r,4R)-4-(2-hydroxypropan-2-yl)cyclohexyl)amino)nicotinamide]
[1]; [4]
  EC50: 127 nM
IRAK4; IRAK4 0.6 nM
  IC50: 4 nM

## CC(C)Nc1cc(-n2ccc3cc(C#N)cnc32)ncc1C(=O)NCCC(C)(C)O [Example 11, 6-(5-cyano-1H-pyrrolo[2,3-b]pyridin-1-yl)-N-(3-hydroxy-3-methylbutyl)-4-(isopropylamino)nicotinamide]
[1]; [2]
  EC50: 50 nM
IRAK4; IRAK4 Inhibition Assay
  IC50: 1.7 nM

## CC(C)NC(=O)[C@H](F)CNC(=O)c1cnc(-n2ncc3cc(C#N)cnc32)cc1NC(C)C [Example 197]
[1]; [2]
  EC50: 297 nM
IRAK4; IRAK4 Inhibition Assay
  IC50: 8.1 nM

## CC(C)Nc1cc(-n2ncc3cc(C#N)cnc32)ncc1C(=O)NCCC(C)NS(C)(=O)=O (stereo not drawn) [Example 264]
[1]; [2]
  IC50: 338 nM
IRAK4; IRAK4 Inhibition Assay
  IC50: 6.5 nM

## CC(C)(O)[C@H](F)CNC(=O)c1cnc(-n2ccc3cc(C#N)cnc32)cc1NC1CC1 [Example 2, (R)-6-(5-cyano-1H-pyrrolo[2,3-b]pyridin-1-yl)-4-(cyclopropylamino)-N-(2-fluoro-3-hydroxy-3-methylbutyl)nicotinamide]
[1]; [2]
  EC50: 8 nM
  IC50: 26 nM
IRAK4; IRAK4 Inhibition Assay
  IC50: 1.6 nM

## CC(C)(O)[C@H](F)CNC(=O)c1cnc(-n2ncc3cc(C#N)cnc32)cc1N[C@@H]1CCN(c2ncc(F)cn2)C1 [Example 532, 6-(5-Cyano-1H-pyrazolo[3,4-b]pyridin-1-yl)-N—((R)-2-fluoro-3-hydroxy-3-methylbutyl)-4-(((R)-1-(5-fluoropyrimidin-2-yl)pyrrolidin-3-yl)amino)nicotinamide]
[1]; [3]
  EC50: 127 nM
IRAK4; IRAK4 0.6 nM
  IC50: 5.5 nM

## COC[C@H](F)CNC(=O)c1cnc(-n2ncc3cc(C#N)cnc32)cc1NC(C)C [Example 128, (R)-6-(5-Cyano-1H-pyrazolo[3,4-b]pyridin-1-yl)-N-(2-fluoro-3-methoxypropyl)-4-(isopropylamino)nicotinamide]
[1]; [2]
  EC50: 248 nM
IRAK4; IRAK4 Inhibition Assay
  IC50: 8.9 nM

## CC(=O)N[C@H]1CC[C@H](NC(=O)c2cnc(-n3ccc4cncnc43)cc2NC(C)C)CC1 [Example 84, N-((trans)-4-acetamidocyclohexyl)-4-(isopropylamino)-6-(7H-pyrrolo[2,3-d]pyrimidin-7-yl)nicotinamide]
[1]; [2]
  EC50: 2000 nM
  IC50: 2010 nM
IRAK4; IRAK4 Inhibition Assay
  IC50: 9.3 nM

## CC(C)Nc1cc(-n2ncc3cc(C#N)cnc32)ncc1C(=O)N[C@@H]1CCCN(S(C)(=O)=O)C1 [Example 245]
[1]; [2]
  EC50: 233 nM
IRAK4; IRAK4 Inhibition Assay
  IC50: 15.7 nM

## CC(C)Nc1cc(-n2ccc3cc(C#N)cnc32)ncc1C(=O)NC1CCC2(CC1)NC(=O)NC2=O (stereo not drawn) [Example 183, 6-(5-Cyano-1H-pyrrolo[2,3-b]pyridin-1-yl)-N-(2,4-dioxo-1,3-diazaspiro[4.5]decan-8-yl)-4-(isopropylamino)nicotinamide]
[1]; [2]
  EC50: 179 nM
IRAK4; IRAK4 Inhibition Assay
  IC50: 4.1 nM
